Laboratory results taken from patent US20050202511A1, “AMP-activated protein kinase (AMPK) inhibitor screening assay” (priority 2002, published 2005).
Values joined by “and” are separate entries in the source; they are usually repeats but may differ in a detail not shown here. Identical values can stand only once. Like-named read-outs stand apart in the source and are kept apart here.

Columns and labels:
IMPDH2 CBS1-2 (R224P) = target: T1, IMPDH2 CBS1-2 (R224P) (Homo sapiens, UniProt P12268, R224P); assay: Filter binding assay, isolated CBS domain pair; conditions: single-site model
T1 construct: DNAs encoding residues 112-232 or the full-length protein (1-514) were amplified; His tag (pHAT20 vector); made in house; host or cells: E. coli
Description: To examine whether binding of adenine nucleotides is a general function for CBS domains, or is specific to the γ subunits of AMPK, IMP dehydrogenase (IMPDH) was also studied. Retinitis pigmentosa can be caused by an R224P mutation in the second CBS domain of the IMPDH1 isoform (27). However, the IMPDH2 isoform is 84% identical in amino acid sequence with IMPDH1, and the arginine mutated in retinitis pigmentosa is conserved. Because the IMPDH2 isoform is ubiquitously expressed and a suitable cDNA to use as a template for PCR was more readily available, DNA encoding the single pair of CBS domains from human IMPDH2 was cloned, an R224P mutation was created and expressed both the wild type and the mutant as His-tagged proteins in E. coli.
(§1) For IMPDH2, DNAs encoding residues 112-232 or the full-length protein (1-514) were amplified using human liver cDNA (Clontech) as template, and cloned into pHAT20 (Clontech) using 5′-AgeI and 3′-KpnI sites added to the primers. For the other constructs, DNAs encoding residues 582-840 of CLC2, or 416-551 of cystathionine â-synthase, were amplified using human liver cDNA as template, and cloned into pGEX-KG as above using 5′-BamHI and 3′-XhoI sites added to the primers. All mutations were created using the Stratagene QuikChange Site-directed Mutagenesis system.
(§2) The IMPDH2 constructs were His-tagged and were purified on chelating-Sepharose (Pharmacia) charged with 50 mM CoCl2 according to manufacturer's instructions.
Various concentrations of [^14C]-AMP, [γ^32P] […] Reactions were stopped by spotting 10 ìl onto a Millipore MF Filter Membrane disc and rapidly washing under high vacuum with 1 ml of ice-cold TBS. Radioactivity was determined on the filters by scintillation counting. Non-specific binding (which was trivial) was determined by performing the assay with GST as a control, and was subtracted. […] Data were fitted to the binding models given in the text, using GraphPad Prism 3. […]

IMPDH2 Tetramer (WT) = target: T2, IMPDH2 Tetramer (WT) (Homo sapiens, UniProt P12268); assay: Filter binding assay, full-length protein; conditions: for Kd: read-out: B0.5
T2 construct: the full-length protein (1-514); His tag (pHAT20 vector); made in house; host or cells: E. coli
Description: as §1, §2
(§3) Various concentrations of [^14C]-AMP, [γ^32P] […] Reactions were stopped by spotting 10 ìl onto a Millipore MF Filter Membrane disc and rapidly washing under high vacuum with 1 ml of ice-cold TBS. Radioactivity was determined on the filters by scintillation counting. Non-specific binding (which was trivial) was determined by performing the assay with GST as a control, and was subtracted. […] Data were fitted to the binding models given in the text, using GraphPad Prism 3. Estimates of parameters resulting from fits are quoted in the text and Table 1±standard error, and the curves shown in figures are theoretical curves obtained using those estimates.

IMPDH2 Tetramer (R224P) = target: T3, IMPDH2 Tetramer (R224P) (Homo sapiens, UniProt P12268, R224P); assay: Filter binding assay, full-length protein
T3 construct: the full-length protein (1-514); His tag (pHAT20 vector); made in house; host or cells: E. coli
Description: as §1, §2, §3

In the case of Nc1ncnc2c1ncn2[C@@H]1O[C@H](COP(=O)(O)OP(=O)(O)OP(=O)(O)O)[C@@H](O)[C@H]1O [ATP], the Kd (IMPDH2 CBS1-2 (R224P)) is reported as 450 ± 36 µM, the “h (Hill coefficient)” value (IMPDH2 Tetramer (WT)) is reported as 1.7 and 1.7 ± 0.2 and the Kd (IMPDH2 Tetramer (WT); Hill equation, 4 sites) is reported as 770 µM. For the same molecule, the Kd (IMPDH2 Tetramer (WT)) was 760 µM, the “h (Hill coefficient)” value (IMPDH2 Tetramer (R224P)) was 0.9 ± 0.1 and the Kd (IMPDH2 Tetramer (R224P); Hill equation, 4 sites, read-out: B0.5) was 64000 ± 5000 µM.
